From a melting point compilation (Tetko et al.; mined from patent text by program, amines drawn as free bases though some values may be those of a salt)

| Compound | melting point |
| --- | --- |
| CCOC(=O)CCCN1CCC[C@H](NCc2ccccc2OC)[C@@H]1c1ccccc1 (relative stereo) | 75 to 90 °C |
| CCC1c2ccccc2-c2cc(-c3cccc4c3oc3ccccc34)ccc2N1S(=O)(=O)c1ccc(O)cc1 (stereo not given) | 218 to 220 °C |
| CC(C)CCC(O)C(CC1CCCCC1)NC(=O)C(Cc1c[nH]cn1)N(C)C(=O)C(Cc1ccccc1)OC(=O)N(C)CCN(C)C(=O)N1CCOCC1 (stereo not given) | 69 to 74 °C |
| N#Cc1c(Cl)nc(Cl)nc1N1CCSCC1 | 180 °C |
| CC(C)(C)c1cccc(CNC(c2ccccc2)C(NCc2cccc(C(C)(C)C)c2O)c2ccccc2)c1O (stereo not given) | 143 to 144 °C |
| CS(=O)(=O)Oc1cccc(N2CCN(CCCCCC(=O)N3Cc4ccccc4C3)CC2)c1 | 141 °C |
| COc1ccc(O)c(CNc2ccc(NC(=O)CC(C)(C)C)cc2)c1 | 126 to 129 °C |
| CCN(C(=O)NC)c1nnc(C(C)(C)C)s1 | 112 °C |
| O=C(COc1ccc([N+](=O)[O-])cc1)OCCO | 73.5 to 75.5 °C |
| CCCC(=O)Nc1ccc2c(c1)CCC(CN1CCC(O)(c3ccccc3)CC1)C2=O (stereo not given) | 196 to 198 °C |
| CCCn1c(=O)c2c(nc(/C=C/c3ccccc3)n2C)n(CCC)c1=O | 163 °C |
| CCc1nc(N)nc(N)c1N1CCNCC1 | 204 to 207 °C |
| CC(C)(C)c1nc2cc(N3CCCC3)c(N)cc2s1 | 130 to 132 °C |
| O=c1n(CCC#Cc2cccc(CF)n2)nc2ccccn12 | 106 to 107 °C |
| Cc1ccccc1C(=O)Nc1ccc(C(=O)N2CCCC(NC(=O)CN(C)C)c3ccccc32)cc1 (stereo not given) | 214 to 216 °C |
| COC(=O)CCCc1cc2nc(C(F)(F)F)ccc2n1S(=O)(=O)c1ccccc1Cl | 88 °C |
| CCN(CC)CCNc1nc2ccccc2n(-c2ccc(Cl)cc2)c1=O | 96 to 98 °C |
| CCOC(=O)Nc1cc(Cl)nc(NC(=O)OCC)n1 | 153 to 154 °C |
| NC(=NO)c1ncn2c1[C@@H]1CCCN1C(=O)c1c(Cl)cccc1-2 | 249 to 250 °C |
| Cc1cc(C)c(NC(=O)CC23CC4CC(CC(C4)C2)C3)cc1C | 158 °C |
| O=C(OCC1OC(n2cc(I)c(=O)[nH]c2=O)C(F)C1OC(=O)c1ccccc1)c1ccccc1 (stereo not given) | 197 °C |

| Compound | melting point |
| --- | --- |
| O=C(OCCOc1ccc2ncnn2n1)N1CCN(C(c2ccccc2)c2ccccc2)CC1 | 157 to 159 °C |
| CCOP1(=O)OCc2ccccc21 (stereo not given) | 60 °C |
| CCN1CCCC1CNC(=O)c1ccc(Cl)nc1Cl (stereo not given) | 73 to 74 °C |
| CNC(=O)Nc1snc(C)c1[N+](=O)[O-] | 249 to 251 °C |
| NCCc1c[nH]c(=O)[nH]c1=O | 214 to 220 °C |
| COC1C(O)C(CO)OC1n1ccc(=O)[nH]c1=O (stereo not given) | 158 to 159 °C |
| COc1ccc(CCN(C)CCCCc2ccc(NC(=O)c3cccc4c(=O)c5ccccc5[nH]c34)cc2)cc1 | 143 °C |
| OCC[C@H](O)COC(c1ccccc1)(c1ccccc1)c1ccccc1 | 68.8 to 70.9 °C |
| O=C1CC[C@@H](CCCO)[C@H](c2ccc(OCc3ccccc3)cc2OCc2ccccc2)C1 (relative stereo) | 110 to 117 °C |
| CC(=O)NCC1CN(c2ccc(N3CCC(O)(C(C#N)C4CC4)CC3)c(F)c2)C(=O)O1 (stereo not given) | 170 to 172 °C |
| O=[N+]([O-])c1ccc(O)c(COCCO)c1 | 132 °C |
| CCCCCc1ccc(OC(=O)c2ccc(O)cc2Cl)cc1 | 149 to 151 °C |
| CC(C)(C)C(=O)NNc1ccc([N+](=O)[O-])cc1Cl | 123 °C |
| O=C(c1ccccc1)c1ccc(OCCCOc2ccc(C(=O)c3ccccc3)cc2)cc1 | 146 to 148 °C |
| CCOP(=O)(OCC)Oc1cc(C(F)(F)F)nc(N(C)C)n1 | 22 to 24 °C |
| CCCCCCCCCCCCCCCCCCS(=O)c1cc2ccccc2c(N=Nc2ccc(OC)cc2)c1O (stereo not given) | 108 to 110 °C |
| O=C1COc2ccc3c(c2N1)C(=O)CC3 | 136 to 139 °C |
| Cc1c(C)c2c(c(C)c1O)CCC(C)(C)O2 | 85 to 88 °C |
| CC[C@H](C)[C@@H](CO)NS(=O)(=O)c1ccc(I)cc1 | 118 to 120 °C |
| O=[N+]([O-])c1ccc(S(=O)(=O)On2nnc3ccccc32)cc1 | 120 to 122 °C |
| Fc1cc2c(cc1F)CC(n1cc[nH]c1=S)C2 | 255 to 257 °C |

Now from value to compound:

| melting point | Compound |
| --- | --- |
| 271 to 274 °C | CN(C1=CC(=O)CC1)[C@@H]1c2cc(C#N)ccc2OC(C)(C)[C@H]1O (relative stereo) |
| 115 to 118 °C | Fc1ccc(-c2cn(-c3ccncc3)c3ccccc23)cc1 |
| 154 to 155 °C | Cc1oc(COc2ccc(/C=C/CO)cc2)nc1-c1ccccc1 |
| 118 to 119 °C | COCOc1ccc(Nc2ncccc2NS(=O)(=O)c2ccc(OC)cc2)cc1 |
| 314 to 316 °C | COc1ccc2c(=O)[nH]c(=O)[nH]c2c1OC |
| 197 to 199 °C | CC(C)c1cc2sccc2c2c3c([nH]c12)CCNC3 |
| 169 to 170 °C | O=c1cc(-c2ccoc2)c2ccc(Sc3cc(F)cc(-c4cccnc4)c3)cc2o1 |
| 202 to 204 °C | COc1cc(OCCCN2CCC(c3n[nH]c4cc(F)ccc34)CC2)ccc1C(C)=O |
| 123 to 124 °C | C=C1CC(C)(COc2ccc3ccc(=O)oc3c2)OC1=O (stereo not given) |
| 170 to 173 °C | O=C1C(c2ccccc2)=CC(=O)c2c(O)c(-c3ccccc3)cc(O)c21 |
| 137 to 139 °C | CCc1c(-c2ccc(OC)cc2)c2cc(C(C)=O)c3cc(OC)cc1n32 |
| 116 to 119 °C | CNC(=O)NCCn1c(-c2ccc(CN3C(C)COCC3C)cc2)csc1=Nc1ccc(F)c(C)c1 (stereo not given) |
| 208 to 211 °C | CNC(=S)n1nc(-c2ccc(Cl)nc2)nc1N |
| 82 to 86 °C | COC(=O)CCCc1cc2nc(Cl)ccc2n1S(=O)(=O)c1cccc(-c2nccs2)c1 |
| > 250 °C | Cc1cc(=O)[nH]nc1-c1ccc(-c2n[nH]c(=O)cc2C)cc1 |
| 188 to 190 °C | COC(=O)C1CCc2cc(C(=O)c3ccccc3Cl)c(O)cc21 (stereo not given) |
| 115 to 116 °C | Cc1c(C)n(Cc2ccccc2)c2ncnc(Cl)c12 |
| 141 to 142 °C | CC(C)c1nn(-c2ccc(Cl)cn2)cc1CCCOc1ccccc1CC(=O)O |
| 105 to 106 °C | Cc1nnc(COc2ccc([N+](=O)[O-])cc2)o1 |
| 97 °C | COc1ccc(F)cc1C(C)(C)c1cc(Cl)ccc1O |

| melting point | Compound |
| --- | --- |
| 99 to 100 °C | C1=C(c2nc(COc3ccc(CCCn4ccnc4)cc3)co2)CCc2ccccc21 |
| 158 to 160 °C | CC(=O)n1c(-c2ccc(C#N)cc2)cc2ccccc21 |
| 128 to 130 °C | C1=C(c2coc3ccccc23)N2CCCN=C2S1 |
| 206 to 208 °C | CC(C)c1ccc(-c2csc(-c3cccc(C(=O)O)c3)n2)cc1 |
| 145 to 146 °C | C/C(=C\Cn1oc(=O)[nH]c1=O)c1cccc(OCc2nc(-c3ccc(OC(F)(F)F)cc3)oc2C)c1 |
| 153 to 154 °C | Cc1cc(-c2cccc(C(F)(F)F)c2)n2ncc(C(=O)c3ccccc3)c2n1 |
| 208 to 209 °C | NC(=S)c1ccc2c(c1)Nc1ccccc1S2 |
| 56 to 57 °C | CC(=O)SCCc1noc(C(C)c2ccc(-c3ccccc3)c(F)c2)n1 (stereo not given) |
| 139 °C | CCOC(=O)C1=C(C)NN=C(C(=O)OC)C1c1cccc(Cl)c1 (stereo not given) |
| 111 to 112 °C | CCOc1nn(-c2cc(C(F)(F)F)ccn2)cc1CCCOc1ccc(CCC(=O)O)cc1OC |
| 161 to 163 °C | CN(C)c1cccc2c(S(=O)(=O)Nc3ncc(Cl)cc3Cl)cccc12 |
| 201 to 206 °C | COC(=O)c1nc(-c2ccc(Cl)cc2F)cc(NC(C)=O)c1O |
| 109 to 111 °C | CCCN(Cc1ccco1)S(=O)(=O)c1ccc(OC)c2oc(C(C)=O)cc12 |
| 223 to 225 °C | CC(=O)c1cc2c(s1)C(NC(=O)c1ccc([N+](=O)[O-])cc1)C(O)C(C)(C)O2 (stereo not given) |
| 79 to 81 °C | Cc1ccc2c(c1C)OC(C)(C)C2=O |
| > 250 °C | O=C(O)c1cccc2[nH]c(=O)c(-c3csc(-c4ccncc4)n3)cc12 |
| 191 to 193 °C | Oc1ccc2cc(-c3csc(Cc4c(Cl)cccc4Cl)n3)ccc2c1 |
| 106 to 108 °C | c1ccc(-n2c(Cc3ccccn3)nc3ccccc32)cc1 |
| 185 to 186 °C | CONc1nc(Nc2ccc(C#N)cc2)nc(Oc2c(C)cc(C#N)cc2C)c1Br |
| 131 to 132 °C | CCOC(=O)c1ccc2oc3ncccc3c(=O)c2c1 |

| melting point | Compound |
| --- | --- |
| 266 °C | NC(=O)c1[nH]c2cccnc2c1Sc1ccc(Cl)cc1Cl |
| 112 to 113 °C | O=C(NCc1cccc(Br)c1)c1ccc2cnccc2n1 |
| 132 °C | CCCC(=O)Oc1ccc2sc(S(N)(=O)=O)nc2c1 |
| 157 °C | COc1nn(-c2cccc(N(C)C(C)=O)c2)c(=O)n(Cc2ccc(Cl)cc2)c1=O |
| 124 to 126 °C | Cc1ccc(-c2ccc(S(C)(=O)=O)cc2)n1CC(C)(C)S |
| 219 °C | Cc1ccc(C(=S)Oc2nc[nH]c2C(N)=O)cc1 |
| 262 to 264 °C | Cc1cncc(-c2nc3cc(NC(=O)c4c(C(=O)N5CCC5)cnn4C)ccn3n2)c1 |
| 249 °C | O=C(Nc1ncc(C(F)(F)F)o1)C1c2ccc(F)cc2Oc2cc(F)ccc21 |
| 233 to 235 °C | CC1=NNC(c2ccc3c(c2)Nc2nccnc2S3)=NN1 |
| 144 to 146 °C | CCC1(CCCCN2CCN(c3ccccn3)CC2)C(=O)Nc2c(Cl)cc(Cl)cc21 (stereo not given) |
| 119 to 120 °C | O=C(O)CCc1cccc(CCc2nc(-c3ccccc3)c(-c3ccccc3)o2)c1 |
| 165 to 166 °C | CCCn1c(CCOC)nc2c(N)nc3cc(OCCCN)ccc3c21 |
| 180 to 182 °C | Cc1ccc(C(=O)Cn2c(=NS(=O)(=O)c3ccc(C)cc3)sc3ccccc32)cc1 |
| 150 °C | COc1cc2c(N3CCN(Cc4ccccc4)CC3)nc(-c3ccc(Cl)cc3)nc2c(OC)c1OC |
| 146 °C | Cc1cc2c(Br)ccc([N+](=O)[O-])c2cn1 |
| 142 to 144 °C | Cc1c(NC(=O)CC(C)(C)C)c(C)c2c(c1-c1cccnc1)OCC2c1ccc(C(C)C)cc1 (stereo not given) |
| 150 to 155 °C | CCCCCCOc1ccc(-c2ncc(-c3ccc(O)c(F)c3F)cn2)cn1 |
| 130 to 132 °C | CC(C)(C)OC(=O)NCCCn1ncc2cc(Br)ccc2c1=O |
